# Test results as given in patent US10179790B2 (THOMAS HELLEDAYS STIFTELSE FOR MEDICINSK FORSKNING, priority 2014, dated 2019).
# Columns and labels:
# [1] = test system: cancer cell; assay: Cell viability assay (resazurin); type: cell-based; settings: 72 h; 3 days with compound, resazurin fluorescence; cell line not named
# How it was run: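 Cells in DMEM GlutaMAX or line-appropriate medium are exposed to compound for 3 days at 37 °C, 5% CO2. Viability is read as resazurin fluorescence (Ex544/Em590) after 2 h incubation. In the 384-well format, cells are seeded onto 11 pre-dispensed concentrations (final DMSO <1%) and read after 3 h resazurin.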
# [2] = molecular target: MTH1 (Homo sapiens, UniProt P36639); assay: MTH1 enzymatic assay and IC50 value determination (malachite green, 96- and 384-well format); type: biochemical; settings: hydrolysis of dGTP (100 μM), MTH1 6 nM, pyrophosphatase-coupled malachite green, 15 minutes at 22° C.
# How it was run: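 MTH1 (6 nM) hydrolysed dGTP (100 μM) for 15 min at 22 °C in Tris-acetate buffer with Mg2+, DTT, Tween 20 and excess pyrophosphatase, 1% DMSO. Pi detected with malachite green at 630 nm. IC50 from nonlinear 4-parameter fit of 11–12-point dilution series.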
SMILES,IC50 [1] [nM],IC50 [2] [nM]
"Cc1c(-c2cc(NCCc3ccc(C(N)=O)cc3)nc(N)n2)ccc(Cl)c1Cl [Example 78, 4-(2-{[2-amino-6-(3,4-dichloro-2-methylphenyl)pyrimidin-4-yl]amino}ethyl)benzamide]",< 500,< 200
"Cc1cc(Cl)cc(-c2cc(NCCc3ccc(C(N)=O)cc3)nc(N)n2)c1F [Example 79, 4-(2-{[2-amino-6-(5-chloro-2-fluoro-3-methylphenyl)pyrimidin-4-yl]amino}ethyl)benzamide]",< 500,< 200
"Cc1c(Cl)cccc1-c1cc(NCCc2cccc(NC(=O)C(C)(C)C)c2)nc(N)n1 [Example 81, N-[3-(2-{[2-amino-6-(3-chloro-2-methylphenyl)pyrimidin-4-yl]amino}ethyl)phenyl]-2,2-dimethylpropanamide]",< 500,< 200
"Cc1c(Cl)cccc1-c1cc(NCCc2cccc(NC(=O)NC(C)C)c2)nc(N)n1 [Example 82, 1-[3-(2-{[2-amino-6-(3-chloro-2-methylphenyl)pyrimidin-4-yl]amino}ethyl)phenyl]-3-(propan-2-yl)urea]",< 500,< 200
"Cc1c(Cl)cccc1-c1cc(NCCc2cccc(NC(=O)OC(C)(C)C)c2)nc(N)n1 [Example 83, tert-butyl N-[3-(2-{[2-amino-6-(3-chloro-2-methylphenyl)pyrimidin-4-yl]amino}ethyl)phenyl]carbamate]",< 500,< 200
"Cc1c(Cl)cccc1-c1cc(NCCc2cccc(NC(=O)C3CC3)c2)nc(N)n1 [Example 84, N-[3-(2-{[2-amino-6-(3-chloro-2-methylphenyl)pyrimidin-4-yl]amino}ethyl)phenyl]cyclopropanecarboxamide]",< 500,< 200
"Cc1c(Cl)cccc1-c1cc(NCCc2cccc(NS(=O)(=O)CC(C)C)c2)nc(N)n1 [Example 85, N-[3-(2-{[2-amino-6-(3-chloro-2-methylphenyl)pyrimidin-4-yl]amino}ethyl)phenyl]-2-methylpropane-1-sulfonamide]",< 500,< 200
"Cc1c(Cl)cccc1-c1cc(NCCc2ccc(NS(=O)(=O)C(C)C)cc2)nc(N)n1 [Example 86, N-[4-(2-{[2-amino-6-(3-chloro-2-methylphenyl)pyrimidin-4-yl]amino}ethyl)phenyl]propane-2-sulfonamide]",< 500,< 200
"Cc1c(Cl)cccc1-c1cc(NCCc2ccc(NS(=O)(=O)CC(C)C)cc2)nc(N)n1 [Example 87, N-[4-(2-{[2-amino-6-(3-chloro-2-methylphenyl)pyrimidin-4-yl]amino}ethyl)phenyl]-2-methylpropane-1-sulfonamide]",< 500,< 200
"CNC(=O)c1ccc(CCNc2cc(-c3cccc(Cl)c3C)nc(N)n2)cc1 [Example 89, 4-[2-[[2-amino-6-(3-chloro-2-methyl-phenyl)pyrimidin-4-yl]amino]ethyl]-N-methyl-benzamide]",< 500,< 200
"Cc1c(Cl)cccc1-c1cc(NCCc2ccc(C(=O)N3CCCC3)cc2)nc(N)n1 [Example 90, [4-[2-[[2-amino-6-(3-chloro-2-methyl-phenyl)pyrimidin-4-yl]amino]ethyl]phenyl]-pyrrolidin-1-yl-methanone]",< 500,< 200
"Cc1c(Cl)cccc1-c1cc(NCCNc2ccc3c(c2)OCC(=O)N3)nc(N)n1 [Example 91, 7-[2-[[2-amino-6-(3-chloro-2-methyl-phenyl)pyrimidin-4-yl]amino]ethylamino]-4H-1,4-benzoxazin-3-one]",< 500,< 200
"Cc1c(Cl)cccc1-c1cc(NCCNc2ccc3c(c2)N(C)C(=O)CO3)nc(N)n1 [Example 92, 6-[2-[[2-amino-6-(3-chloro-2-methyl-phenyl)pyrimidin-4-yl]amino]ethylamino]-4-methyl-1,4-benzoxazin-3-one]",< 500,< 200
"Cc1c(Cl)cccc1-c1cc(NCCc2cccc([N+](=O)[O-])c2)nc(N)n1 [Example 95, 6-(3-chloro-2-methylphenyl)-4-N-[2-(3-nitrophenyl)ethyl]pyrimidine-2,4-diamine]",< 500,< 200
"Cc1cccc(-c2cc(NCCc3ccc(S(N)(=O)=O)cc3)nc(N)n2)c1Cl [Example 96, 4-[2-[[2-amino-6-(2-chloro-3-methyl-phenyl)pyrimidin-4-yl]amino]ethyl]benzenesulfonamide]",< 500,< 200
"Nc1nc(NCCc2ccc(S(N)(=O)=O)cc2)cc(-c2cc(Cl)cc(Cl)c2Cl)n1 [Example 97, 4-[2-[[2-amino-6-(2,3,5-trichlorophenyl)pyrimidin-4-yl]amino]ethyl]benzenesulfonamide]",< 500,< 200
"Cc1nc2ccc(NCCNc3cc(-c4cccc(Cl)c4C)nc(N)n3)cc2s1 [Example 101, 6-(3-chloro-2-methyl-phenyl)-N4-[2-[(2-methyl-1,3-benzothiazol-6-yl)amino]ethyl]pyrimidine-2,4-diamine]",< 500,< 200
"CC1(C)Nc2cc(NCCNc3cc(-c4cccc(Cl)c4)nc(N)n3)ccc2OC1=O [Example 103, 6-[2-[[2-amino-6-(3-chlorophenyl)pyrimidin-4-yl]amino]ethylamino]-3,3-dimethyl-4H-1,4-benzoxazin-2-one]",< 500,< 200
"CC1(C)Nc2cc(NCCNc3cc(-c4cccc(Cl)c4Cl)nc(N)n3)ccc2OC1=O [Example 104, 6-[2-[[2-amino-6-(2,3-dichlorophenyl)pyrimidin-4-yl]amino]ethylamino]-3,3-dimethyl-4H-1,4-benzoxazin-2-one]",< 500,< 200
"Cc1c(Cl)cccc1-c1cc(NCCNc2cccc(S(C)(=O)=O)c2)nc(N)n1 [Example 105, 6-(3-chloro-2-methyl-phenyl)-N4-[2-(3-methylsulfonylanilino)ethyl]pyrimidine-2,4-diamine]",< 500,< 200
"CS(=O)(=O)c1cccc(NCCNc2cc(-c3cccc(Cl)c3Cl)nc(N)n2)c1 [Example 106, 6-(2,3-dichlorophenyl)-N4-[2-(3-methylsulfonylanilino)ethyl]pyrimidine-2,4-diamine]",< 500,< 200
"Cc1c(Cl)cccc1-c1cc(NCCc2ccc(C(N)=NO)cc2)nc(N)n1 [Example 107, 4-[2-[[2-amino-6-(3-chloro-2-methyl-phenyl)pyrimidin-4-yl]amino]ethyl]-N′-hydroxy-benzamidine]",< 500,< 200
"Cc1c(Cl)cccc1-c1cc(NCCc2ccc(C(=O)N3CCOCC3)cc2)nc(N)n1 [Example 108, [4-[2-[[2-amino-6-(3-chloro-2-methyl-phenyl)pyrimidin-4-yl]amino]ethyl]phenyl]-morpholino-methanone]",< 500,< 200
"Cc1c(Cl)cc(Cl)cc1-c1cc(NCCc2ccc(C(=O)N3CCOCC3)cc2)nc(N)n1 [Example 109, [4-[2-[[2-amino-6-(3,5-dichloro-2-methyl-phenyl)pyrimidin-4-yl]amino]ethyl]phenyl]-morpholino-methanone]",< 500,< 200
"Cc1c(Cl)cccc1-c1cc(NCCCNc2cccc(S(C)(=O)=O)c2)nc(N)n1 [Example 110, 6-(3-chloro-2-methyl-phenyl)-N4-[3-(3-methylsulfonylanilino)propyl]pyrimidine-2,4-diamine]",< 500,< 200
